Read-outs that look alike come from different tables or passages of the source.
Assays:
human P2X7 receptor = human P2X7 receptor (Homo sapiens, UniProt Q99572, R270H/Y155H); assay: Evaluation of human P2X7 receptor inhibitory activity (Yo-Pro uptake, BzATP stimulation, FLIPR TETRA); type: cell-based; details: 1321N1 cells stably expressing human P2X7 receptor; BzATP stimulation, Yo-Pro uptake; read-out: IC50 (antagonistic activity for the human P2X7 receptor)
Procedure, shortened: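 1321N1 cells stably expressing human P2X7 (T606C/G952A SNP variant), in HBSS buffer pH 7.4-7.5 with Yo-Pro, stimulated with BzATP; compound added 8 min after agonist. Fluorescence followed for 20 min on FLIPR; max-minus-min change gave % inhibition, IC50 by logistic fit.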

[1] = test system: partial sciatic nerve ligation model in rats; assay: Analgesic effect in a Seltzer model, evaluation (1): mechanical allodynia, von Frey filaments; type: in vivo; details: rat, read-out: analgesic effect, % reversal of mechanical allodynia
From the text: Preparation of Partial Sciatic Nerve Ligation Model in Rats
Rats are anaesthetized using isoflurane/O2 inhalation anaesthesia. After induction of anesthesia, the left thigh is shaved. An incision was made in the skin just below the hip bone. The muscle was bluntly dissected to expose the sciatic nerve. About one half (½) of the sciatic nerve thickness is tightly ligated with a nylon thread and the wound is closed. The right thigh was used as a sham-operated control. The right thigh underwent an identical procedure with the left hind limb, however, the sciatic nerve was not manipulated or ligated.
Two weeks after nerve ligation, the effect on mechanical allodynia was assessed using a series of von Frey filaments. For habituation, the rats were placed into a plastic cage on a wire mesh bottom. Von Frey filaments (0.4 to 26 g) were applied to the plantar surface of the rat hind paws from the wire mesh side, and the value of the filament pressure at which the paw was withdrawn was used as a pain threshold. The measurement of mechanical sensitivity of the right and left hind paws was performed to obtain predose mechanical sensitivity. The rats showing the threshold change from 0.6 to 2 g (in nerve ligated side) and 8 to 15 g (in sham operated side) were used in the experiments. On the day before the experiment, the rats were evaluated with a series of von Frey filaments to familiarize them with the test procedure. The adopted animal was administrated with the compounds of the present invention. The compounds of the present invention were homogenized with mortar and pestle and suspended or diluted in 0.5% Methyl Cellulose to prepare 0.03-100 mg/2 mL/kg suspension and orally administered to rat using a syringe attached with a sonde. Post-dose mechanical sensitivities of the right and left hind paws were measured at approximately 1 to 7 hours after drug administration. Percent reversal of mechanical allodynia for each rat was calculated using the following formula. The analgesic effects of the compounds were compared.

[2] = 3 hours after oral administration of 3 mg/kg

Row | Structure (SMILES) | IC50 (human P2X7 receptor) [nM] | inhibition in vivo at 3 mg/kg ([1]; 5 hours after oral administration of 3 mg/kg) [%] | inhibition in vivo at 3 mg/kg [1, 2] [%]
1 | COc1ccc(C)c(Nc2nc(=O)c(F)cn2Cc2cc(F)c(F)c(F)c2)c1 [Compound I-1066] | 3 | 63 | –
2 | COc1cn(Cc2ccc(F)c(Cl)c2)c(Nc2cc(C)c(Cl)cc2C)nc1=O [Compound I-0006] | 6 | – | 49
3 | Cc1ccc(F)cc1Nc1nc(=O)c(F)cn1Cc1cc(F)c(F)c(F)c1 [Compound I-1295] | 13 | – | 51
